This is an account of results in patent US20160039825A1 (BIOGEN MA INC., priority 2013, published 2016).

The target in this test is T1, Human ATX protein (Homo sapiens, UniProt Q13822).
T1 construct: made in house
As to the kind of experiment: Autotaxin (ATX) assay, FRET with FS-3 substrate. The note with it: upper bound bins (no greater than 100, 250 or 500 nM); FS-3 2 μM, ATX 1.0 μg/mL. The format is biochemical. The text has this: ATX (Autotaxin) is a 125 KDa glycoprotein with lysophospholipase D (LPLD) activity that generates the bioactive lipid lysophosphatidic acid (LPA) from lysophosphatidylcholine (LPC). The ATX biochemical assay utilizes a FRET (fluorescence resonance energy transfer) technology platform. The fluorescence signal of FRET substrate FS-3 is quenched due to intra-molecular FRET of a fluorophore to a non-fluorescing quencher (Ferguson, C. G., et al., Org Lett. 2006 May 11; 8(10): 2023-2026, which is incorporated by reference in its entirety). ATX catalyzes the hydrolysis of the substrate which separates the dabsyl quencher from the fluorescein reporter, which becomes fluorescent. The reaction is monitored by a SpectraMax M5 (Molecular Devices, Sunnyvale, Calif.) with at excitation wavelength 485 nm and emission wavelength […].
Fatty acid free-BSA (Sigma A8806): 10 mg/mL in H2O, stored at 4° C.
2×ATX assay buffer: 100 mM Tris, 280 mM NaCl, 10 mM KCl, 2 mM CaCl2, 2 mM MgCl2, pH 7.4.
Human ATX protein: expressed and purified in house. Stored at −80° C.
Substrate FS-3 (Echelon, L-2000): 100 μg in 77.74 μL H2O (1 mM stock), stored at −20° C.
384-well flat bottom plates—Corning #3575.
Compound dilution—All compounds were provided at 10 mM in 100% DMSO. In the first well, 2 μL of 10 mM compound was added to 78 μL of DMSO (1:40 dilution). In subsequent wells 3-fold dilution (total 10 dilutions) were performed.
1×ATX assay buffer was made up with a final concentration of 1 mg/mL fatty acid free-BSA using 2×ATX assay buffer, 10 mg/ml fatty acid free-BSA and ddH2O.
ATX protein was diluted with 1×ATX assay buffer to a concentration of 1.32 μg/mL (1.32×). 38 μL was added per well to the assay plate. The final concentration of ATX in the reaction as 1.0 μg/mL.
2 μL per well of compounds was transferred to provide the desired concentration. The plate was centrifuged, then incubated at room temperature for 30 minutes on the shaker.
FS-3 was diluted with 1×ATX assay buffer to a concentration of FS-3 of 10 μM (5×). Then, 10 μL was added per well to the assay plate. The final concentration of FS-3 in the reaction was 2 μM. The plate was centrifuged. The plate was kept shaking at room temperature for 2 hours. Because FS-3 substrate is light sensitive, plates were kept covered and protected from light.
Fluorescence was measured using SpectraMax M5 (excitation at 485 nm/emission at 538 nm, top read).
As for `O=C(OCc1cc(Cl)cc(C(F)(F)F)c1)N1CCCn2nc(C3CN4CCC[C@H]4CO3)cc2C1` (mixture of isomers) [Example 251, 3-Chloro-5-(trifluoromethyl)benzyl 2-((8aS)-hexahydro-1H-pyrrolo[2,1-c][1,4]oxazin-3-yl)-7,8-dihydro-4H-pyrazolo[1,5-a][1,4]diazepine-5(6H)-carboxylate], the IC50 (in general, the point on the concentration scale where inhibition reaches its midpoint) was no more than 100 nM.
With `O=C(OCc1cc(Cl)cc(C(F)(F)F)c1)N1CCCn2nc(C3CN4CCCC[C@H]4CO3)cc2C1` (mixture of isomers) [Example 253, 3-chloro-5-(trifluoromethyl)benzyl 2-((9aS)-octahydropyrido[2,1-c][1,4]oxazin-3-yl)-7,8-dihydro-4H-pyrazolo[1,5-a][1,4]diazepine-5(6H)-carboxylate], the IC50 is no more than 100 nM.
The same measure for `O=C(OCc1cc(Cl)cc(C(F)(F)F)c1)N1CCCn2nc(C3CN4CCCC[C@@H]4CO3)cc2C1` (mixture of isomers) [Example 254, 3-chloro-5-(trifluoromethyl)benzyl 2-((9aR)-octahydropyrido[2,1-c][1,4]oxazin-3-yl)-7,8-dihydro-4H-pyrazolo[1,5-a][1,4]diazepine-5(6H)-carboxylate]: no more than 100 nM; for `O=C(OCc1cc(Cl)cc(C(F)(F)F)c1)N1CCCn2nc(C3CN4CCC[C@@H]4CO3)cc2C1` (single isomer, unassigned) [Example 252A]: no more than 100 nM.
The molecule `CCOC(=O)c1cc2n(n1)CCCN(C(=O)OCc1cc(Cl)cc(Cl)c1)C2` [Example 1, 5-(3,5-Dichlorobenzyl) 2-ethyl 7,8-dihydro-4H-pyrazolo[1,5-a][1,4]diazepine-2,5(6H)-dicarboxylate] displayed an IC50 of no more than 500 nM.
As to `CCOC(=O)c1cc2n(n1)CCCN(C(=O)OCc1cc(C(F)(F)F)cc(C(F)(F)F)c1)C2` [Example 2, 5-(3,5-Bis(trifluoromethyl)benzyl) 2-ethyl 7,8-dihydro-4H-pyrazolo[1,5-a][1,4]diazepine-2,5(6H)-dicarboxylate], the IC50 is no more than 100 nM.
Take `CCOC(=O)c1cn2c(n1)CN(C(=O)OCc1cc(C(F)(F)F)cc(C(F)(F)F)c1)CC2` [Example 3, 7-(3,5-Bis(trifluoromethyl)benzyl) 2-ethyl 5,6-dihydroimidazo[1,2-a]pyrazine-2,7(8H)-dicarboxylate]: the IC50 was no more than 100 nM.
For the molecule `O=C(O)c1cc2n(n1)CCCN(C(=O)OCc1cc(Cl)cc(Cl)c1)C2` [Example 7, 5-(((3,5-Dichlorobenzyl)oxy)carbonyl)-5,6,7,8-tetrahydro-4H-pyrazolo[1,5-a][1,4]diazepine-2-carboxylic acid], the IC50 was no more than 100 nM.
`O=C(O)c1cc2n(n1)CCCN(C(=O)OCc1cc(C(F)(F)F)cc(C(F)(F)F)c1)C2` [Example 8, 5-(((3,5-Bis(trifluoromethyl)benzyl)oxy)carbonyl)-5,6,7,8-tetrahydro-4H-pyrazolo[1,5-a][1,4]diazepine-2-carboxylic acid] registered an IC50 of no more than 100 nM.
Then `O=C(O)c1cnc2n1CCN(C(=O)OCc1cc(C(F)(F)F)cc(C(F)(F)F)c1)CC2` [Example 10, 7-(((3,5-Bis(trifluoromethyl)benzyl)oxy)carbonyl)-6,7,8,9-tetrahydro-5H-imidazo[1,2-d][1,4]diazepine-3-carboxylic acid], with no more than 500 nM.
The same measure for `O=C(OCc1cc(Cl)cc(Cl)c1)N1CCCn2nc(C(=O)N3C4CCCC3CCC4)cc2C1` [Example 12, 3,5-Dichlorobenzyl 2-(9-azabicyclo[3.3.1]nonane-9-carbonyl)-7,8-dihydro-4H-pyrazolo[1,5-a][1,4]diazepine-5(6H)-carboxylate]: no more than 100 nM; for `CC(C)(C)NC(=O)c1cc2n(n1)CCCN(C(=O)OCc1cc(Cl)cc(Cl)c1)C2` [Example 14, 3,5-Dichlorobenzyl 2-(tert-butylcarbamoyl)-7,8-dihydro-4H-pyrazolo[1,5-a][1,4]diazepine-5(6H)-carboxylate]: no more than 250 nM; for `O=C(NC1CCC1)c1cc2n(n1)CCCN(C(=O)OCc1cc(Cl)cc(Cl)c1)C2` [Example 15, 3,5-Dichlorobenzyl 2-(cyclobutylcarbamoyl)-7,8-dihydro-4H-pyrazolo[1,5-a][1,4]diazepine-5(6H)-carboxylate]: no more than 100 nM.
`O=C(NC1CCCC1)c1cc2n(n1)CCCN(C(=O)OCc1cc(Cl)cc(Cl)c1)C2` [Example 16, 3,5-Dichlorobenzyl 2-(cyclopentylcarbamoyl)-7,8-dihydro-4H-pyrazolo[1,5-a][1,4]diazepine-5(6H)-carboxylate] registered a concentration for half-maximal inhibition (IC50) of no more than 100 nM.
Then `O=C(NC1CCCCC1)c1cc2n(n1)CCCN(C(=O)OCc1cc(Cl)cc(Cl)c1)C2` [Example 17, 3,5-Dichlorobenzyl 2-(cyclohexylcarbamoyl)-7,8-dihydro-4H-pyrazolo[1,5-a][1,4]diazepine-5(6H)-carboxylate], with no more than 100 nM.
The same measure for `O=C(OCc1cc(Cl)cc(Cl)c1)N1CCCn2nc(C(=O)N3CCCC3)cc2C1` [Example 18, 3,5-Dichlorobenzyl 2-(pyrrolidine-1-carbonyl)-7,8-dihydro-4H-pyrazolo[1,5-a][1,4]diazepine-5(6H)-carboxylate]: no more than 100 nM; for `O=C(OCc1cc(Cl)cc(Cl)c1)N1CCCn2nc(C(=O)N3CCCCC3)cc2C1` [Example 19, 3,5-Dichlorobenzyl 2-(piperidine-1-carbonyl)-7,8-dihydro-4H-pyrazolo[1,5-a][1,4]diazepine-5(6H)-carboxylate]: no more than 100 nM.
With `O=C(OCc1cc(Cl)cc(Cl)c1)N1CCCn2nc(C(=O)N3CCC(F)CC3)cc2C1` [Example 20, 3,5-Dichlorobenzyl 2-(4-fluoropiperidine-1-carbonyl)-7,8-dihydro-4H-pyrazolo[1,5-a][1,4]diazepine-5(6H)-carboxylate], the IC50 is no more than 100 nM.
The same measure for `CC1CCN(C(=O)c2cc3n(n2)CCCN(C(=O)OCc2cc(Cl)cc(Cl)c2)C3)CC1` [Example 21, 3,5-Dichlorobenzyl 2-(4-methylpiperidine-1-carbonyl)-7,8-dihydro-4H-pyrazolo[1,5-a][1,4]diazepine-5(6H)-carboxylate]: no more than 100 nM.
As to `O=C(OCc1cc(Cl)cc(Cl)c1)N1CCCn2nc(C(=O)N3CCC(C(F)(F)F)CC3)cc2C1` [Example 22, 3,5-Dichlorobenzyl 2-(4-(trifluoromethyl)piperidine-1-carbonyl)-7,8-dihydro-4H-pyrazolo[1,5-a][1,4]diazepine-5(6H)-carboxylate], the IC50 is no more than 100 nM.
Then `O=C(OCc1cc(Cl)cc(Cl)c1)N1CCCn2nc(C(=O)N3CCOCC3)cc2C1` [Example 23, 3,5-Dichlorobenzyl 2-(morpholine-4-carbonyl)-7,8-dihydro-4H-pyrazolo[1,5-a][1,4]diazepine-5(6H)-carboxylate], with no more than 100 nM; and `O=C(OCc1cc(Cl)cc(Cl)c1)N1CCCn2nc(C(=O)N3CCNCC3)cc2C1` [Example 24, 3,5-Dichlorobenzyl 2-(piperazine-1-carbonyl)-7,8-dihydro-4H-pyrazolo[1,5-a][1,4]diazepine-5(6H)-carboxylate], with no more than 100 nM.
Turning to `CN1CCN(C(=O)c2cc3n(n2)CCCN(C(=O)OCc2cc(Cl)cc(Cl)c2)C3)CC1` [Example 25, 3,5-Dichlorobenzyl 2-(4-methylpiperazine-1-carbonyl)-7,8-dihydro-4H-pyrazolo[1,5-a][1,4]diazepine-5(6H)-carboxylate], the half-maximal inhibitory concentration (IC50) was no more than 100 nM.
Regarding `NC1CCN(C(=O)c2cc3n(n2)CCCN(C(=O)OCc2cc(Cl)cc(Cl)c2)C3)CC1` [Example 26, 3,5-Dichlorobenzyl 2-(4-aminopiperidine-1-carbonyl)-7,8-dihydro-4H-pyrazolo[1,5-a][1,4]diazepine-5(6H)-carboxylate], the IC50 is no more than 100 nM.
Regarding `CNC(=O)c1cc2n(n1)CCCN(C(=O)OCc1cc(Cl)cc(Cl)c1)C2` [Example 27, 3,5-Dichlorobenzyl 2-(methylcarbamoyl)-7,8-dihydro-4H-pyrazolo[1,5-a][1,4]diazepine-5(6H)-carboxylate], the IC50 was no more than 100 nM.
`CN(C)C(=O)c1cc2n(n1)CCCN(C(=O)OCc1cc(Cl)cc(Cl)c1)C2` [Example 28, 3,5-Dichlorobenzyl 2-(dimethylcarbamoyl)-7,8-dihydro-4H-pyrazolo[1,5-a][1,4]diazepine-5(6H)-carboxylate]: the IC50 was no more than 100 nM.
